In article PMC6120666 (The EMBO Journal, 2018):

Experiments:
Test in all cases: Drug affinity chromatography with c-ponatinib and LC-MS/MS (ponatinib interactome)
Format in all cases: binding
[1] = molecular target: T1, proteins of U2OS cell lysate (Homo sapiens, UniProt P14618)
T1 construct: Proteins enriched by c-ponatinib from U2OS cell lysate; endogenous in cells; host or cells: U2OS cell lysate
How it was run: (§1)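 U2OS cell lysate in NP-40 lysis buffer (2 mg protein per pulldown) was incubated with amine-derivatized NHS beads for 2 h at 4 °C. Bound proteins were washed, eluted with 100 mM formic acid, reduced, alkylated and trypsin-digested, then identified by nano-UPLC–MS/MS on Orbitrap instruments with a 60 min gradient.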

[2] = molecular target: T2, proteins of U2OS cell lysate (Homo sapiens, UniProt Q9BQE3)
T2 construct: Proteins enriched by c-ponatinib from U2OS cell lysate; endogenous in cells; host or cells: U2OS cell lysate
T2 sequence (Q9BQE3 whole entry): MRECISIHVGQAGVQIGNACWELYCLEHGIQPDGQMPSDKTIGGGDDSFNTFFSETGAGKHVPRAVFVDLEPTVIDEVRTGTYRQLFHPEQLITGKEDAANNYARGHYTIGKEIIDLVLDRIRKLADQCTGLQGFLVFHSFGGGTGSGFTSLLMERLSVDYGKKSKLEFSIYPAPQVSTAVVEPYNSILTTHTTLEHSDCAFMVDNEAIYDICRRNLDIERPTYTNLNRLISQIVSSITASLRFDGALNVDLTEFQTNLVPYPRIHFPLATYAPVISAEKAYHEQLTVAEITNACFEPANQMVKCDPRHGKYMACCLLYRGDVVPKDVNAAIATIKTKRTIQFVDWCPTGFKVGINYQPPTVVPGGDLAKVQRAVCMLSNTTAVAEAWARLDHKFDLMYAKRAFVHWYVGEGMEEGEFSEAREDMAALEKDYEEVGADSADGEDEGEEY
How it was run: as §1

[3] = molecular target: T3, proteins of U2OS cell lysate (Homo sapiens, UniProt P25786)
T3 construct: Proteins enriched by c-ponatinib from U2OS cell lysate; endogenous in cells; host or cells: U2OS cell lysate
T3 sequence (P25786 whole entry): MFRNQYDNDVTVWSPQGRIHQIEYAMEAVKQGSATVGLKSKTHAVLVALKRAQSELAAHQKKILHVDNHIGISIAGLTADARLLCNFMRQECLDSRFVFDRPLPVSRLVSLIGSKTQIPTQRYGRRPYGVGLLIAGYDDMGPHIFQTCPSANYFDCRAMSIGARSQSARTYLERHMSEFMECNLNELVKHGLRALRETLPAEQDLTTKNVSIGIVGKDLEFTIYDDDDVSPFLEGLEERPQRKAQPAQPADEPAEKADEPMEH
How it was run: as §1

[4] = molecular target: T4, proteins of U2OS cell lysate (Homo sapiens, UniProt P23396)
T4 construct: Proteins enriched by c-ponatinib from U2OS cell lysate; endogenous in cells; host or cells: U2OS cell lysate
How it was run: as §1

[5] = molecular target: T5, proteins of U2OS cell lysate (Homo sapiens, UniProt P09619)
T5 construct: Proteins enriched by c-ponatinib from U2OS cell lysate; endogenous in cells; host or cells: U2OS cell lysate
T5 sequence (P09619 33-1106): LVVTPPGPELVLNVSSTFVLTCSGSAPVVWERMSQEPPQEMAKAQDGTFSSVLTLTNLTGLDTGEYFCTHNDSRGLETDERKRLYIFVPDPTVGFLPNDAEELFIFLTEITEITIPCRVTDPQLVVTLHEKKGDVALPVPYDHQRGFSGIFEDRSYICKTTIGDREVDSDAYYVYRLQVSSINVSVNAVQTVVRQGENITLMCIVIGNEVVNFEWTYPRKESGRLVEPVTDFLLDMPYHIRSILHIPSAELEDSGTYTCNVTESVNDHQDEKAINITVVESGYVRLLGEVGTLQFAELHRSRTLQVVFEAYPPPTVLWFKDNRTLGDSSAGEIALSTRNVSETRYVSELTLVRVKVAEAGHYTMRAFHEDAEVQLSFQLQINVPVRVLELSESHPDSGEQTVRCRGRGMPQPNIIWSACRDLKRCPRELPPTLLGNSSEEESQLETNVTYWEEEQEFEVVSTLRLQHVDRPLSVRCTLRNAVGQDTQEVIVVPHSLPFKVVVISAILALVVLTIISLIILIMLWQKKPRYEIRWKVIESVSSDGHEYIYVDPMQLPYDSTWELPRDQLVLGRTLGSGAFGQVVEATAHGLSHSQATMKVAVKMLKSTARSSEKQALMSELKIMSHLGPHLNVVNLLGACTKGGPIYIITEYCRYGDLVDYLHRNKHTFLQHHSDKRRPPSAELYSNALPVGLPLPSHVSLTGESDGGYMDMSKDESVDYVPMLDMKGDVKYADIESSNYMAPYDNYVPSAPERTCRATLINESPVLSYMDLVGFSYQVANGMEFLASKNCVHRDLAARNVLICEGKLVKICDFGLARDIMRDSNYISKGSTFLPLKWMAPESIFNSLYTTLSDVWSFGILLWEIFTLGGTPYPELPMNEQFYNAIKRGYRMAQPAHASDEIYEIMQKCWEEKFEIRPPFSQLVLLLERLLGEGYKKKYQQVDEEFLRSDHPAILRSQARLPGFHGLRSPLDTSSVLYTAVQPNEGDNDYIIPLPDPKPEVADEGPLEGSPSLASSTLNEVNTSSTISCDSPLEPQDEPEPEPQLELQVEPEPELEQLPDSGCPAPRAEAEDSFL
How it was run: as §1

[6] = molecular target: T6, proteins of U2OS cell lysate (Homo sapiens, UniProt P09497)
T6 construct: Proteins enriched by c-ponatinib from U2OS cell lysate; endogenous in cells; host or cells: U2OS cell lysate
How it was run: as §1

[7] = molecular target: T7, proteins of U2OS cell lysate (Homo sapiens, UniProt Q9Y230)
T7 construct: Proteins enriched by c-ponatinib from U2OS cell lysate; endogenous in cells; host or cells: U2OS cell lysate
How it was run: as §1

[8] = molecular target: T8, proteins of U2OS cell lysate (Homo sapiens, UniProt Q16186)
T8 construct: Proteins enriched by c-ponatinib from U2OS cell lysate; endogenous in cells; host or cells: U2OS cell lysate
How it was run: as §1

[9] = molecular target: T9, proteins of U2OS cell lysate (Homo sapiens, UniProt Q9BUF5)
T9 construct: Proteins enriched by c-ponatinib from U2OS cell lysate; endogenous in cells; host or cells: U2OS cell lysate
How it was run: as §1

[10] = molecular target: T10, proteins of U2OS cell lysate (Homo sapiens, UniProt O43175)
T10 construct: Proteins enriched by c-ponatinib from U2OS cell lysate; endogenous in cells; host or cells: U2OS cell lysate
How it was run: as §1

[11] = molecular target: T11, proteins of U2OS cell lysate (Homo sapiens, UniProt Q16643)
T11 construct: Proteins enriched by c-ponatinib from U2OS cell lysate; endogenous in cells; host or cells: U2OS cell lysate
T11 sequence (Q16643 whole entry): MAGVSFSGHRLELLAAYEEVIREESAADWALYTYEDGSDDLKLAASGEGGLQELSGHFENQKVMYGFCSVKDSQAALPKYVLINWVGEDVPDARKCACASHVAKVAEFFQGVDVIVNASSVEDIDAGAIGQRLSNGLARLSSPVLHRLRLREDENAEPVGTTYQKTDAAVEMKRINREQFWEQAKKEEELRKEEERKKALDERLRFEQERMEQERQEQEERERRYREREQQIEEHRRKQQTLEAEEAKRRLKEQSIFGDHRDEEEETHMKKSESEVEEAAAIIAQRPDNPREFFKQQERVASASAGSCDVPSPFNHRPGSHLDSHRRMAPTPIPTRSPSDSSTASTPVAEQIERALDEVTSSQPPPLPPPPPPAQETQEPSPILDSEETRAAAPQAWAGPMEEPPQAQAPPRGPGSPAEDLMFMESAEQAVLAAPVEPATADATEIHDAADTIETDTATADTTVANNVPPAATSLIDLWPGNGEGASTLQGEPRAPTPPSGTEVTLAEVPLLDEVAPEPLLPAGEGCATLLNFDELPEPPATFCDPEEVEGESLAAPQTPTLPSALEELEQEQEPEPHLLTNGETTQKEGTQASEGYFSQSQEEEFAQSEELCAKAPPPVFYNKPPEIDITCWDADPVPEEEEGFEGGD
How it was run: as §1

[12] = molecular target: T12, proteins of U2OS cell lysate (Homo sapiens, UniProt Q13233)
T12 construct: Proteins enriched by c-ponatinib from U2OS cell lysate; endogenous in cells; host or cells: U2OS cell lysate
T12 sequence (Q13233 whole entry): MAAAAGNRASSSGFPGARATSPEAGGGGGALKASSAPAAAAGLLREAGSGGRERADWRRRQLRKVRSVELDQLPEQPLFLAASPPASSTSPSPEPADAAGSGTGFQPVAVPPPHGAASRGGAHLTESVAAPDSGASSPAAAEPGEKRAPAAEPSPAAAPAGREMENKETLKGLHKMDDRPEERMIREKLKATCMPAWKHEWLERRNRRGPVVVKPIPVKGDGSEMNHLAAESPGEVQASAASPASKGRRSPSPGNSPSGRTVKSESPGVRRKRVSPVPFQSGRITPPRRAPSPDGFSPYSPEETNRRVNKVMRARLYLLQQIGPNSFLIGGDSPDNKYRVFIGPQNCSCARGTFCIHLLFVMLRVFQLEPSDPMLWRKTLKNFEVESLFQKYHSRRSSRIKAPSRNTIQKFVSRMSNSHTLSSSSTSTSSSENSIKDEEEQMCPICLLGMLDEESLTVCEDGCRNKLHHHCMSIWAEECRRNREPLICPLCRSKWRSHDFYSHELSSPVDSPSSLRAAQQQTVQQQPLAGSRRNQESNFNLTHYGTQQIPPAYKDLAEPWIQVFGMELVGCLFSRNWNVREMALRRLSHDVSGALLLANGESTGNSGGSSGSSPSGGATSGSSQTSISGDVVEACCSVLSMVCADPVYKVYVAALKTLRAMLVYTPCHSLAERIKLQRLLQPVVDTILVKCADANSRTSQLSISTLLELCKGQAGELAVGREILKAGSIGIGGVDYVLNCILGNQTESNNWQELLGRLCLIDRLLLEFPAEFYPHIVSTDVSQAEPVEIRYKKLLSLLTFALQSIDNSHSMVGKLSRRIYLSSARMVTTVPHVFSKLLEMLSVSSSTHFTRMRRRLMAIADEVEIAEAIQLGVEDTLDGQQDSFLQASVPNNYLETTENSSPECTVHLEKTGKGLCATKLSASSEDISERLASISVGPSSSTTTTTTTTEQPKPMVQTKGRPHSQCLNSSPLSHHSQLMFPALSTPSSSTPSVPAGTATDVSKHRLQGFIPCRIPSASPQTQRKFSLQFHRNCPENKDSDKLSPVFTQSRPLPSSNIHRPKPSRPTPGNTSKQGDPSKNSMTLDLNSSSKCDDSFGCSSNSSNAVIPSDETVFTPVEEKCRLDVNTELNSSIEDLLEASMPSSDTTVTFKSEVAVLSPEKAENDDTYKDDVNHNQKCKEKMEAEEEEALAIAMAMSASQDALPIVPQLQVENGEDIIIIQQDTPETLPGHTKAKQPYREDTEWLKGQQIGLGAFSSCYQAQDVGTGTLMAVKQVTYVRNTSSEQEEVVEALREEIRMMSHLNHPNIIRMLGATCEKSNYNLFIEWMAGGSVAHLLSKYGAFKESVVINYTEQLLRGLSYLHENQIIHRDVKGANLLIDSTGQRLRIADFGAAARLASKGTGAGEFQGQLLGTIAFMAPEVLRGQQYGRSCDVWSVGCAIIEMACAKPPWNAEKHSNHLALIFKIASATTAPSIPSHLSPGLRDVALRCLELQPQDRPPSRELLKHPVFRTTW
How it was run: as §1

[13] = molecular target: T13, proteins of U2OS cell lysate (Homo sapiens, UniProt Q9UBM7)
T13 construct: Proteins enriched by c-ponatinib from U2OS cell lysate; endogenous in cells; host or cells: U2OS cell lysate
T13 sequence (Q9UBM7 whole entry): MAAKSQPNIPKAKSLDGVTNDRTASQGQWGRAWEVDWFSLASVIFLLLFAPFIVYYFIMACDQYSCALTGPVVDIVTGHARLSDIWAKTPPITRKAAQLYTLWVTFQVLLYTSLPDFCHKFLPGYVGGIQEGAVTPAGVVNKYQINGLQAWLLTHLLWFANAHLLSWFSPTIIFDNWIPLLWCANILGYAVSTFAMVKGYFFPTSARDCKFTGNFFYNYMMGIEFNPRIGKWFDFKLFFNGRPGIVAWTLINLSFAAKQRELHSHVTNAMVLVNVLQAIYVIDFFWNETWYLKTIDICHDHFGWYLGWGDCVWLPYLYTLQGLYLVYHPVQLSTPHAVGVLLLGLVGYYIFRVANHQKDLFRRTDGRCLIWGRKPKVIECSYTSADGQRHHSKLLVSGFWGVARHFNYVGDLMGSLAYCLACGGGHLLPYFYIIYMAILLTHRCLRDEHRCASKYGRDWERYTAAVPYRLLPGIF
How it was run: as §1

[14] = molecular target: T14, proteins of U2OS cell lysate (Homo sapiens, UniProt Q9NX63)
T14 construct: Proteins enriched by c-ponatinib from U2OS cell lysate; endogenous in cells; host or cells: U2OS cell lysate
How it was run: as §1

[15] = molecular target: T15, proteins of U2OS cell lysate (Homo sapiens, UniProt Q15019)
T15 construct: Proteins enriched by c-ponatinib from U2OS cell lysate; endogenous in cells; host or cells: U2OS cell lysate
T15 sequence (Q15019 whole entry): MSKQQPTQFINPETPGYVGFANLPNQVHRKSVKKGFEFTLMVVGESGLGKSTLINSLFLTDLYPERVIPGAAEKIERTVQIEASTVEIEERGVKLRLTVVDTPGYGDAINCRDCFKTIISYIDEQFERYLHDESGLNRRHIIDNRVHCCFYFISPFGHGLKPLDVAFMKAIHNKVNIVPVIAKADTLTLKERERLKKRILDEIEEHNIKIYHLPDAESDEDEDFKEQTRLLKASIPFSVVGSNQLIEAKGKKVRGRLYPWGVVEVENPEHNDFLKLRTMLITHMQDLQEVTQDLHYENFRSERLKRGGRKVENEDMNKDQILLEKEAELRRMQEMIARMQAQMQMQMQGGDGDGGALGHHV
How it was run: as §1

[16] = molecular target: T16, proteins of U2OS cell lysate (Homo sapiens, UniProt P53999)
T16 construct: Proteins enriched by c-ponatinib from U2OS cell lysate; endogenous in cells; host or cells: U2OS cell lysate
How it was run: as §1

[17] = molecular target: T17, proteins of U2OS cell lysate (Homo sapiens, UniProt P24539)
T17 construct: Proteins enriched by c-ponatinib from U2OS cell lysate; endogenous in cells; host or cells: U2OS cell lysate
T17 sequence (P24539 43-256): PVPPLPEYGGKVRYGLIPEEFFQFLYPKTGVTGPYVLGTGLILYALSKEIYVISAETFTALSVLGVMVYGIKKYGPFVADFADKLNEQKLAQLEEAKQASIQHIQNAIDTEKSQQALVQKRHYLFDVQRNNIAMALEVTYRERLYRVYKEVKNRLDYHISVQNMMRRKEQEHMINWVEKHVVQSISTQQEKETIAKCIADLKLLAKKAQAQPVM
How it was run: as §1

[18] = molecular target: T18, proteins of U2OS cell lysate (Homo sapiens, UniProt P49006)
T18 construct: Proteins enriched by c-ponatinib from U2OS cell lysate; endogenous in cells; host or cells: U2OS cell lysate
How it was run: as §1

[19] = molecular target: T19, proteins of U2OS cell lysate (Homo sapiens, UniProt P28072)
T19 construct: Proteins enriched by c-ponatinib from U2OS cell lysate; endogenous in cells; host or cells: U2OS cell lysate
How it was run: as §1

## Cc1ccc(C(=O)Nc2ccc(CN3CCN(C)CC3)c(C(F)(F)F)c2)cc1C#Cc1cnc2cccnn12 [PON]
[1]; PKM, Pyruvate kinase PKM
  Average LFQ PON_WT: 21.567
[2]; TUBA1C, Tubulin alpha-1C chain
  Average LFQ PON_WT: 21.711
[3]; PSMA1, Proteasome subunit alpha type-1
  Average LFQ PON_WT: 22.7928
[4]; RPS3, 40S ribosomal protein S3
  Average LFQ PON_WT: 21.7356
[5]; PDGFRB, Platelet-derived growth factor receptor beta
  Average LFQ PON_WT: 22.3008
[6]; CLTB, Clathrin light chain B
  Average LFQ PON_WT: 22.5074
[7]; RUVBL2, RuvB-like 2
  Average LFQ PON_WT: 22.2484
[8]; ADRM1, Proteasomal ubiquitin receptor ADRM1
  Average LFQ PON_WT: 22.2159
[9]; TUBB6, Tubulin beta-6 chain
  Average LFQ PON_WT: 22.6671
[10]; PHGDH, D-3-phosphoglycerate dehydrogenase
  Average LFQ PON_WT: 23.086
[11]; DBN1, Drebrin
  Average LFQ PON_WT: 22.4964
[12]; MAP3K1, Mitogen-activated protein kinase kinase kinase 1
  Average LFQ PON_WT: 22.7864
[13]; DHCR7, 7-dehydrocholesterol reductase
  Average LFQ PON_WT: 21.6093
[14]; CHCHD3, Coiled-coil-helix-coiled-coil-helix domain-containing protein 3, mitochondrial
  Average LFQ PON_WT: 22.5984
[15]; SEPT2, Septin-2
  Average LFQ PON_WT: 22.2443
[16]; SUB1, Activated RNA polymerase II transcriptional coactivator p15
  Average LFQ PON_WT: 22.9694
[17]; ATP5F1, ATP synthase subunit b, mitochondrial
  Average LFQ PON_WT: 22.7408
[18]; MARCKSL1, MARCKS-related protein
  Average LFQ PON_WT: 21.5548
[19]; PSMB6, Proteasome subunit beta type-6
  Average LFQ PON_WT: 22.7359

## Cc1ccc(C(=O)Nc2ccc(CN3CCN(CCCN)CC3)c(C(F)(F)F)c2)cc1C#Cc1cnc2cccnn12 [c-ponatinib, reference compound]
[1]; captured protein PKM, Rank 224
  Average LFQ intensity: 21.567
[2]; captured protein TUBA1C, Rank 213
  Average LFQ intensity: 21.711
[3]; captured protein PSMA1, Rank 138
  Average LFQ intensity: 22.7928
[4]; captured protein RPS3, Rank 210
  Average LFQ intensity: 21.7357
[5]; captured protein PDGFRB, Rank 168
  Average LFQ intensity: 22.3008
[6]; captured protein CLTB, Rank 157
  Average LFQ intensity: 22.5074
[7]; captured protein RUVBL2, Rank 173
  Average LFQ intensity: 22.2484
[8]; captured protein ADRM1, Rank 178
  Average LFQ intensity: 22.2159
[9]; captured protein TUBB6, Rank 151
  Average LFQ intensity: 22.6671
[10]; captured protein PHGDH, Rank 119
  Average LFQ intensity: 23.086
[11]; captured protein DBN1, Rank 158
  Average LFQ intensity: 22.4964
[12]; captured protein MAP3K1, Rank 139
  Average LFQ intensity: 22.7864
[13]; captured protein DHCR7, Rank 220
  Average LFQ intensity: 21.6093
[14]; captured protein CHCHD3, Rank 154
  Average LFQ intensity: 22.5984
[15]; captured protein 2002-09-01 (Septin-2), Rank 174
  Average LFQ intensity: 22.2443
[16]; captured protein SUB1, Rank 126
  Average LFQ intensity: 22.9694
[17]; captured protein ATP5F1, Rank 144
  Average LFQ intensity: 22.7408
[18]; captured protein MARCKSL1, Rank 225
  Average LFQ intensity: 21.5548
[19]; captured protein PSMB6, Rank 145
  Average LFQ intensity: 22.7359
